Results reported in paper PMC9848351, “Discovery of new pyridine-quinoline hybrids as competitive and non-competitive PIM-1 kinase inhibitors with apoptosis induction and caspase 3/7 activation capabilities” (Journal of Enzyme Inhibition and Medicinal Chemistry, 2023).

How the values were obtained:
[1] = system: prostate cancer cell line (PC-3); experiment: MTT anticancer activity, PC-3; type: cell-based, human; conditions: Homo sapiens, 72 h, PC-3, 72 h, mean ± SEM
Protocol: (§1) Anticancer effect of the above-mentioned compounds was evaluated using four human cancer cell lines. Colon cancer cells (Caco-2), myeloid leukaemia cell line (NFS-60), liver cancer cell line (HepG-2) and prostate cancer cell line (PC-3) using MTT method was used for assaying cell viability[26] (Supplementary Page S55).
(§2) All final compounds were evaluated against four human cancer cell lines namely; liver cancer (HepG2) (ATCC® HB-8065™), colon cancer (Caco-2) (ATCC® HTB-37™), leukaemia cancer (NFS-60) (ATCC® CRL-1838™), and prostate cancer (PC-3) (ATCC® CRL-1435™) using doxorubicin (Dox) as the reference drug being widely used in tumour management utilising microculture MTT assay, declared by Mosmann[26] (Table 1 in Supplementary Material, Figures 5–8). […]
(§3) MTT method was used for assaying cell viability 25. Twenty microliters of 5 mg/ml MTT (Sigma, USA) was added to each well and the plate was incubated at 37 °C for 3 h. Then MTT solution was removed, 100 µl DMSO was used and the absorbance of each well was measured with a microplate reader ( BMG LabTech, Germany) at 570 nm. The effective concentration (IC 50) and safe dose (EC100) values of the tested compounds that cause 50% and 100% cell viability were estimated by the Graphpad Instat software.
(§4) Determination of the anticancer activity
(§5) Anticancer effect of the above-mentioned compounds was evaluated using four human cancer cell lines. Colon cancer cells (Caco-2) were maintained in DMEM (Lonza, USA) containing 10% FBS while myeloid leukemia cell line (NFS-60), liver cancer cell line (HepG-2) and prostate cancer cell line (PC-3) were cultured in RPMI-1640 (Lonza, USA) supplemented with 10% FBS. All cancer cells (5x10^3 cells/well) were seeded in sterile 96-well plates. After 24h, serial concentrations of the tested compounds and Dox were incubated with four cancer cell lines for 72 h at 37 °C in 5% CO2 incubator. MTT method was done as described above. The Graphpad Instat software was used for calculating the half maximal inhibitory concentration (IC50) values. Furthermore, phase contrast inverted microscope with a digital camera (Olympus, Japan) was used for investigating […]
(§6) safest anticancer compounds. […]

[2] = system: Colon cancer cells (Caco-2); experiment: MTT anticancer activity, Caco-2; type: cell-based, human; conditions: for IC50: Homo sapiens, Caco-2, 72 h, MTT, mean ± SEM; for Caco-2 SI: selectivity index, Wi-38 versus Caco-2
Protocol: as §1
All final compounds were evaluated against four human cancer cell lines namely; liver cancer (HepG2) (ATCC® HB-8065™), colon cancer (Caco-2) (ATCC® HTB-37™), leukaemia cancer (NFS-60) (ATCC® CRL-1838™), and prostate cancer (PC-3) (ATCC® CRL-1435™) using doxorubicin (Dox) as the reference drug being widely used in tumour management utilising microculture MTT assay, declared by Mosmann[26] (Table 1 in Supplementary Material, Figures 5–8).
(§7) Cytotoxicity of the tested compounds was evaluated using normal human lung fibroblast Wi-38 cell line compared to currently used anticancer drug (doxorubicin).
as §3, with “Firstly, Wi-38 cell line was subcultured in DMEM medium-contained 10% fetal bovine serum (FBS), then, seeded as 5x10^3 cells per well in 96-well cell culture plate and incubated at 37 °C in 5% CO 2 incubator. Serial concentrations of these compounds and doxorubicin (Dox) were incubat ed with Wi-38 cells for 72 h after 24 h for cell attachment. MTT method” for “MTT method”
as §4, §5, §6

[3] = system: normal human lung fibroblast Wi-38 cell line; experiment: MTT cytotoxicity on normal cells; type: cell-based; conditions: Wi-38, 72 h, MTT, mean ± SEM; for EC50: Homo sapiens, 50% cell viability; for Wi-38 EC100: safe dose, 100% cell viability
Protocol: Cytotoxicity of the tested compounds was evaluated using normal human lung fibroblast Wi-38 cell line compared to currently used anticancer drug (doxorubicin) using MTT method was used for assaying cell viability[26] (Supplementary Page S55).
Cytotoxicity test is one of the biological evaluations and screening tests that use human normal and cancer cells in-vitro to observe the effect of the studied compounds on their growth using MTT-based cytotoxicity. Microculture MTT method[26] was used to determine cytotoxic activity of the newly synthesised compounds against normal human lung fibroblast (Wi-38) using doxorubicin (Dox) as standard anticancer drug. The highest IC50 and EC100 values illustrate that the compounds were safe on the proliferation of normal human cells. […]. page 47:
as §7
as §3, with “Firstly, Wi-38 cell line was subcultured in DMEM medium-contained 10% fetal bovine serum (FBS), then, seeded as 5x10^3 cells per well in 96-well cell culture plate and incubated at 37 °C in 5% CO 2 incubator. Serial concentrations of these compounds and doxorubicin (Dox) were incubat ed with Wi-38 cells for 72 h after 24 h for cell attachment. MTT method” for “MTT method”, “Instat software. […]” for “Instat software.”

[4] = system: myeloid leukaemia cell line (NFS-60); experiment: MTT anticancer activity, NFS-60; type: cell-based; conditions: NFS-60, 72 h, MTT; mean ± SEM
Protocol: as §1, §2, §3, §4, §5, §6

[5] = system: liver cancer cell line (HepG-2); experiment: MTT anticancer activity, HepG-2; type: cell-based, human; conditions: Homo sapiens, HepG2; HepG-2, 72 h, MTT; mean ± SEM
Protocol: as §1, §2, §3, §4, §5, §6

| SMILES | IC50 [1] [nM] | IC50 [2] [nM] | Caco-2 SI [2] | EC50 [3] [nM] | Wi-38 EC100 [3] [µM] | IC50 [4] [nM] | IC50 [5] [nM] | melting point [°C] |
| --- | --- | --- | --- | --- | --- | --- | --- | --- |
| COc1ccc2nc(N3CCOCC3)c(-c3cc(-c4cccc(OC(C)=O)c4)[nH]c(=O)c3C#N)cc2c1 [7c, 3-(5-Cyano-4-(6-methoxy-2-morpholin-4-yl-quinolin-3-yl)-6-oxo-1,6-dihydropyridin-2-yl)phenyl acetate] | 101 ± 1 | 127 ± 14 | 1.079 | 137 ± 0.1 | 0.094 ± 0.005 | 153 ± 34 | 142.1 ± 1 | > 300 |
| N#Cc1c(-c2cc3ccccc3nc2N2CCOCC2)cc(-c2cccc(O)c2)nc1OCC(=O)O [9a, 2-((3-Cyano-6-(3-hydroxyphenyl)-4-(2-morpholin-4-yl-quinolin-3-yl)pyridin-2-yl)oxy)acetic acid] | 84.7 ± 3 | 73.9 ± 0.1 | 2.152 | 159 ± 4 | 0.0254 ± 0.002 | 92.3 ± 0.1 | 78.2 ± 2 | 179 to 180 |
| N#Cc1c(-c2cc3cc(Cl)ccc3nc2N2CCOCC2)cc(-c2cccc(O)c2)nc1OCC(=O)O [9b, 2-((4-(6-Chloro-2-morpholin-4-yl-quinolin-3-yl)-3-cyano-6-(3-hydroxyphenyl)pyridin-2-yl)oxy)acetic acid] | 97.3 ± 8 | 55.2 ± 2 | 3.098 | 171 ± 1 | 0.134 ± 0.01 | 380 ± 10 | 45.4 | 279 to 280 |
| COc1ccc2nc(N3CCOCC3)c(-c3cc(-c4cccc(O)c4)nc(OCC(=O)O)c3C#N)cc2c1 [9c, 2-((3-Cyano-6-(3-hydroxyphenyl)-4-(6-methoxy-2-morpholin-4-yl-quinolin-3-yl)pyridin-2-yl)oxy)acetic acid] | 46.2 ± 2 | 52.6 ± 0.1 | 5.247 | 276 ± 2 | 0.0754 ± 0.003 | 96.1 ± 2 | 86.7 ± 3 | 274 to 275 |
| N#Cc1c(-c2cc3ccccc3nc2N2CCOCC2)cc(-c2cccc(O)c2)nc1OCC(=O)Nc1ccccc1 [11a, 2-((3-Cyano-6-(3-hydroxyphenyl)-4-(2-morpholin-4-yl-quinolin-3-yl)pyridin-2-yl)oxy)-N-phenylacetamide] | 158 ± 26 | 158 ± 2 | 0.911 | 144 ± 1 | 0.0906 ± 0.012 | 126 ± 6 | 336 ± 22 | 243 to 245 |
| N#Cc1c(-c2cc3ccccc3nc2N2CCOCC2)cc(-c2cccc(O)c2)nc1OCC(=O)Nc1ccc(Cl)cc1 [11b, N-(4-Chlorophenyl)-2-((3-cyano-6-(3-hydroxyphenyl)-4-(2-morpholin-4-yl-quinolin-3-yl)pyridin-2-yl)oxy)acetamide] | 130 ± 11 | 63 ± 2 | 5.349 | 337 ± 24 | 0.00232 ± 0.001 | 181 ± 7 | 71.5 ± 1 | 279 to 280 |
| COc1ccc(NC(=O)COc2nc(-c3cccc(O)c3)cc(-c3cc4ccccc4nc3N3CCOCC3)c2C#N)cc1 [11c] | 159 ± 7 | 100 ± 14 | 1.010 | 101 ± 1 | 0.0483 ± 0.004 | 110 ± 2 | 281 ± 7 | 268 to 270 |
| COc1ccc2nc(N3CCOCC3)c(-c3cc(-c4cccc(O)c4)nc(OCC(=O)Nc4ccccc4)c3C#N)cc2c1 [11g, 2-((3-Cyano-6-(3-hydroxyphenyl)-4-(6-methoxy-2-morpholin-4-yl-quinolin-3-yl)pyridin-2-yl)oxy)-N-phenylacetamide] | 83.9 ± 3 | 62.6 ± 1 | 2.971 | 186 ± 10 | 0.0450 ± 0.005 | 103 ± 9 | 62.8 ± 1 | 269 to 270 |
| COc1ccc2nc(N3CCOCC3)c(-c3cc(-c4cccc(O)c4)nc(OCC(=O)Nc4ccc(Cl)cc4)c3C#N)cc2c1 [11h, N-(4-Chlorophenyl)-2-((3-cyano-6-(3-hydroxyphenyl)-4-(6-methoxy-2-morpholin-4-yl-quinolin-3-yl)pyridin-2-yl)oxy)acetamide] | 70.9 ± 0.1 | 82.9 ± 3 | 2.002 | 166 ± 3 | 0.0182 ± 0.001 | 78.1 ± 7 | 74 ± 2 | 230 to 232 |
| COc1ccc(NC(=O)COc2nc(-c3cccc(O)c3)cc(-c3cc4cc(OC)ccc4nc3N3CCOCC3)c2C#N)cc1 [11i, 2-((3-Cyano-6-(3-hydroxyphenyl)-4-(6-methoxy-2-morpholin-4-yl-quinolin-3-yl)pyridin-2-yl)oxy)-N-(4-methoxyphenyl)acetamide] | 63.4 ± 2 | 34.7 ± 3 | 7.435 | 258 ± 31 | 0.148 ± 0.0001 | 523 ± 40 | 48.6 | > 300 |
| N#Cc1c(-c2cc3cc(Cl)ccc3[nH]c2=O)cc(-c2cccc(O)c2)[nH]c1=O [13b, 4-(6-Chloro-2-oxo-1,2-dihydroquinolin-3-yl)-6-(3-hydroxyphenyl)-2-oxo-1,2-dihydropyridine-3-carbonitrile] | 38.8 ± 3 | 48.4 ± 5 | 1.005 | 48.6 ± 16 | 0.017 ± 0.002 | 33.7 | 30.9 | > 300 |
| N#Cc1c(-c2cc3cc(Cl)ccc3[nH]c2=O)cc(-c2cccc(O)c2)nc1S [14b, 4-(6-Chloro-2-oxo-1,2-dihydroquinolin-3-yl)-6-(3-hydroxyphenyl)-2-mercaptopyridine-3-carbonitrile] | 140 ± 4 | 146 ± 19 | 1.342 | 196 ± 12 | 0.153 ± 0.005 | 135 ± 3 | 125 ± 2 | 227 to 230 |
